Data published in patent US11554373B2 (priority 2016, dated 2023).
Where a name gives a salt, the structure may show the parent alone.

What was measured:
THP-1 cells [1] = assay: THP-1 cell activation by flow cytometry (CCR5, CD11b, CD86); assay type: cell-based, human; design: CD86 expression (printed C86): dose or concentration left out as unconfirmed
Procedure: THP-1 monocytes (ATCC, TIB-202) were cultured in T-75 flasks according to the protocol recommended by ATCC. […] THP-1 cells show a proclivity towards forming large aggregates of loosely joined cells. These clumps were broken down back into single cells through the addition of deoxyribonuclease 1 (DNase 1, dissolved in 0.85% NaCl in water) (Sigma-Aldrich, D4513) at a concentration of 0.1 mg/mL. When cells had reached their optimal density, they were harvested and pelleted via centrifugation at 150×g for 5 min, resuspended in multi-organ system medium (MOSM) and added to the systems at a physiologically relevant concentration of 250,000 cells/mL. THP-1 cell adhesion to the inside surfaces of the housings was minimized by passivating the inside surfaces with bovine serum albumin (BSA, 0.5 mg/mL dissolved in PBS). 10 uL of medium was removed from each system daily to determine the number of freely recirculating cells present. Initial THP-1 culture medium consisted of RPMI 1640 base medium (ThermoFisher, 11875135) with 10% fetal bovine serum (ThermoFisher, 16000044) and 1× GlutaMAX (ThermoFisher, 35050061).

[2] = HPLC/MS determination of amiodarone remaining in system medium; assay type: in vitro ADME; conditions: 24 hours post-dose
Procedure: Drug addition to the 3-O and 4-O systems was performed on D3 post-assembly. On the day of addition, 3× concentrations of each drug in the serum-free, multi-organ system medium (MOSM) were prepared in advance. ⅓ of the media in each system was removed and replaced with an equal volume of the concentrated drug solution. This facilitated for rapid mixing and complete diffusion of the drugs in the systems without requiring a full media change. […] Lipopolysaccharide (LPS, Sigma-Aldrich, L2630) was dissolved in PBS 1× at a concentration of 1 μg/mL and interferon-γ (IFN-γ) (Sigma-Aldrich, 11040596001) was dissolved in DI water at a concentration of 100,000 units/mL. LPS and IFN-γ were administered as a single cocktail at final concentrations of 10 ng/mL and 100 units/mL, respectively.
Medium samples collected from the systems were spiked with a tamoxifen internal standard (10 nM final measured concentration) and combined with acetonitrile at a 1:3 ratio to extract proteins. The mixtures were then centrifuged at 100×G for 5 minutes and supernatants were collected and diluted 1 to 51 in the initial mobile phase. […] Quantification and qualification ions for tamoxifen were 372.2→72.1 (28 eV CE) and 372.2→44 (48 eV), respectively. […]

[3] = tested on: IPSC derived cardiomyocytes; assay: Cardiac contractile force on cantilevers in 3-O/4-O systems; assay type: cell-based, human
Procedure: (§1) A four-organ system (4-O) was developed to contain a liver compartment, recirculating THP-1 cells, and three separate bioMEMs devices to measure the cardiomyocytes' electrical and mechanical functionality, as well as the mechanical function of the skeletal muscle. Three organ systems (3-0) were also developed to serve as a monocyte-free control for the 4-O systems. […] Cardiac and skeletal muscle mechanical function was evaluated by seeding the cardiomyocytes and skeletal muscle onto their own respective custom arrays of microscale cantilevers. Contractile force of the cardiac and skeletal muscle was calculated from laser-based measurements of cantilever bending resulting from contractile muscle (Stancescu et al 2015). Cardiac electrical function was measured via a microelectrode array amplifier system by incorporating and patterning cardiomyocytes onto custom microelectrode arrays with chemical patterning to produce a defined conduction path along a series of surface embedded microelectrodes (Nataraj an et al 2011, Stancescu et al 2015). Electrical stimulation for skeletal muscle force was generated inside the system with housing-embedded electrodes for cantilevers. […]
(§2) Cardiac and skeletal muscle contractions were measured using a cantilever deflection system that has been described previously (McAleer, 2014; Oleaga, 2016; Oleaga, 2017; Pirozzi, 2013). […]

[4] = tested on: IPSC derived cardiomyocytes; assay: Cardiac conduction velocity on patterned cMEA in 3-O/4-O systems; assay type: cell-based, human
Procedure: as §1
Custom patterned multielectrode arrays (cMEAs) were fabricated to simultaneously stimulate and record electrical activity of cardiomyocytes cultured on the surface (100 μm diameter electrodes, 1000 μm between electrodes). Before culturing, the surfaces were modified to promote cell adhesion in an unbroken “U” pattern that connected multiple electrodes, allowing conduction velocity of the cells to be recorded at different points (14 mm total path length). […]
Drug additions were performed on day 3 of the experiment, immediately after baseline recordings of spontaneous and stimulated cell activity were taken. Cell activity was recorded again 48 and 96 hours after drug exposure. […]

[5] = tested on: IPSC derived cardiomyocytes; assay: Cardiac spontaneous beat frequency in 3-O/4-O systems; assay type: cell-based, human
Text: Custom patterned multielectrode arrays (cMEAs) were fabricated to simultaneously stimulate and record electrical activity of cardiomyocytes cultured on the surface (100 μm diameter electrodes, 1000 μm between electrodes). Before culturing, the surfaces were modified to promote cell adhesion in an unbroken “U” pattern that connected multiple electrodes, allowing conduction velocity of the cells to be recorded at different points (14 mm total path length). Patterned cMEAs were introduced to the housings during system assembly on day 0 of the experiment.
Printed circuit boards (PCBs) and flexible elastomeric connectors (zebra connectors, FUJIPOLY, 1 mm wide×18.2 mm long×9 mm tall) were incorporated into each system to create an interface between the cMEA and a commercially available 60 electrode amplifier (MEA1060, Multichannel-systems). This amplifier was used to both record spontaneous and stimulated electrical activity of the cardiomyocytes. A stimulus generator (STG 1002, Multichannel Systems) was used to stimulate the cells (800 mV rectangular pulse, 0.5 Hz to 3.0 Hz in 0.25 Hz increments). The multichannel systems software suite was used to control both the amplifier and stimulator, and was used to record action potentials.
Drug additions were performed on day 3 of the experiment, immediately after baseline recordings of spontaneous and stimulated cell activity were taken. Cell activity was recorded again 48 and 96 hours after drug exposure. Conduction velocity (CV), spontaneous beat frequency and minimum interspike interval (MIST) were extracted from the data using Clampfit (Axon Instruments).
Spontaneous beat frequency was obtained from spontaneous recordings of cardiac activity 20 seconds in length. For each recording, the frequency was calculated as the number of measured action potentials divided by the length of time between the first and last action potential during the recording interval. […]

skeletal muscle myotubes = assay: Skeletal muscle force on cantilevers in 3-O/4-O systems; assay type: cell-based, human; conditions: 50 uM; up to four days after dose, with or without THP-1
Procedure: as §1, §2

cardiac cells = assay: Endpoint viability (alamar blue) of cardiac chips; assay type: cell-based, human; conditions: 50 uM; endpoint day 7
Procedure: (§4) Cell viability was evaluated in one of three ways depending on the surface the cells were grown on. […] The viability of cardiac and skeletal muscle cells plated on BioMEMs devices was assessed using an alamar blue solution (Thermofisher, DAL1025). Surfaces were incubated in 500 μL of a 10% solution (v:v) of alamar blue in growth medium at 37° C., 5% CO2 for 24 hours. 100 μL of the solution was placed into a 96 well plate and read at fluorescence excitation wavelength 570 nm and emission at 590 nm using the BioTeK Synergy HT plate reader.

skeletal muscle cells = assay: Endpoint viability (alamar blue) of skeletal muscle chips; assay type: cell-based, human; conditions: 50 uM; endpoint day 7
Procedure: as §4

CYP3A4 = CYP3A4 (Homo sapiens, UniProt P08684); assay: Liver cytochrome p450 activity, endpoint D7; assay type: cell-based; conditions: 4-O systems, 50 uM amiodarone vs untreated controls
Chain of CYP3A4 (P08684 whole entry, canonical isoform): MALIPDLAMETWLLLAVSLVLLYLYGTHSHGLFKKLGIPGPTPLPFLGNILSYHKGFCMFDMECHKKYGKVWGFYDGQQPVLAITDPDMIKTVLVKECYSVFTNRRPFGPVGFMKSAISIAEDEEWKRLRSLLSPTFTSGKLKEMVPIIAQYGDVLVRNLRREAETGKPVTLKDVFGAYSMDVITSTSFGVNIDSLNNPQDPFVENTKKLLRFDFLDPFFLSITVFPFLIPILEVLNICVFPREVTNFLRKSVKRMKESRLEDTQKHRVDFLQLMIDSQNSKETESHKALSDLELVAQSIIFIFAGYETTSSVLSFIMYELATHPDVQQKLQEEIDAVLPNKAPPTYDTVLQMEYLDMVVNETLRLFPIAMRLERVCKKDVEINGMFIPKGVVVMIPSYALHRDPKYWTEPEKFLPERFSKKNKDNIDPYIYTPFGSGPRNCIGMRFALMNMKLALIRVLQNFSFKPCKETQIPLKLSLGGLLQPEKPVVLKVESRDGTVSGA
Procedure: (§3) Cytochrome p450 1A1 and 3A4 isoforms from the hepatic cultures were assessed with a luciferin based method in two reactions. Basal activities were compared to induced activities upon incubations with 10 nM TCDD (Sigma, 48599) and 20 μM Rifampicin (Sigma, R3501) for 48 h, prior to the analysis. At 7, 14, 21 and 28 DIV, cells were rinsed 3 times with 1×PBS and incubated with 1A1 specific substrate, Luciferin-CEE (120 μM) (Promega, V8752) in phenol red-free 1×DMEM (Thermo Fisher Scientific, A1443001) for 3 h at 37° C. The enzymatic product (D-Luciferin) of the first reaction was collected and stored at −80° C. until further analysis. […] Twenty minutes after incubation at room temperature in the dark, luminescence was measured using a Synergy HT plate reader with KC4 software. […] 3A4 samples were measured separately from 1A1 samples due to high differences in luminescence emission. Similarly, induced and uninduced samples were measured separately. Each plate was measured a minimum of 5 times to ensure the photomultiplier detector was stabilized, and the average of all readings was taken for the final RLU values. A regression line with the standards (0.5-500 nM diluted in 1×DMEM), subtracting intrinsic DMEM luminescence from values, was obtained for each analysis. […]

CYP2C9 = CYP2C9 (Homo sapiens, UniProt P11712); assay: Liver cytochrome p450 activity, endpoint D7; assay type: cell-based; conditions: 4-O systems, 50 uM amiodarone vs untreated controls
Chain of CYP2C9 (P11712 whole entry): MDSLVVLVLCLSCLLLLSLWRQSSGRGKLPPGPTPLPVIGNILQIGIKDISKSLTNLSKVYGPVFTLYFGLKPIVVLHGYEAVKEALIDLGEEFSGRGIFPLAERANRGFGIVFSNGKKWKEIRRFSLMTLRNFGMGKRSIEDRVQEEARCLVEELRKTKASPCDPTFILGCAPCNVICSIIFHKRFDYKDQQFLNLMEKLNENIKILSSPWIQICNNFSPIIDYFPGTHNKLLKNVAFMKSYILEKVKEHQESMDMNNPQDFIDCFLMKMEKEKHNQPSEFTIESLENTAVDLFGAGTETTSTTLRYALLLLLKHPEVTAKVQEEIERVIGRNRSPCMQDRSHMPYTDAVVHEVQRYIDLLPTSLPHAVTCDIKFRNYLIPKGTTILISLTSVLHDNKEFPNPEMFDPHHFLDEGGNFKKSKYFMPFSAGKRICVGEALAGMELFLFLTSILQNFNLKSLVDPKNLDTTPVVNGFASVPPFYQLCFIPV

CYP1A = assay: Liver cytochrome p450 activity, endpoint D7; assay type: cell-based, human; conditions: 4-O systems, 50 uM amiodarone vs untreated controls
Procedure: as §3

3-O systems+THP-1 cells = assay: Cytokine release in multi-organ systems; assay type: cell-based, human; conditions: 50 uM amiodarone; 7-day time course
cardiac tissue = assay: THP-1 cell infiltration into cardiac tissue (phase contrast, CellTracker Red); assay type: cell-based, human; conditions: 4-O system dosed with amiodarone, after three days
Procedure: THP-1 cells were collected in a 15 mL conical tube and centrifuged to a pellet at 300 g for 5 minutes. The cells were resuspended and counted and the volume adjusted to 1×10^6 cells/mL. Then cells were then incubated with Cell Tracker Red CMTPX Dye (ThermoFisher C34552) following the manufacturer's protocol. The dye loaded cells were then used for infiltration studies in 4-O systems as described.

liver tissue = assay: THP-1 infiltration into liver module by immunocytochemistry (CD11b, CD86); assay type: cell-based, human; conditions: systems with recirculating THP macrophages, amiodarone, vs controls
Procedure: At the end of each experiment, cardiac cMEAs and hepatocyte coverslips were fixed with 4% paraformaldehyde in 1×PBS for 5 minutes. Cells were rinsed twice with 1×PBS and Cells were permeabilized with a solution of 0.1% Triton X-100 in 1×PBS for 15 minutes then blocked with 5% donkey serum in 1×PBS for 20 minutes. Cells were then incubated overnight at 4° C. with primary antibody in blocking solution. Primary antibodies used were anti-CD14, anti-CD16, anti-CD69, anti-CD11b, anti-CD86, and anti-CCR5. Following three, five-minute washes with 1×PBS, cells were incubated for 2 hours at room temperature in the dark with a secondary antibody conjugated to Alexa-488 fluorophore, or Alexa-568 fluorophore. Following the secondary antibody incubation, surfaces were washed 3× in PBS and incubated with 3 mM 4′-6-Diamidino-2-Phenylindole (DAPI) in 1×PBS for 10 min, in the dark and at RT for nuclei staining. DAPI solution was removed and the cells were washed 3× with PBS. Finally, coverslips were mounted on glass slides using a Hard Set Mounting with DAPI (Vector laboratories, Inc.). Alternatively, MEAs were left in the final 1×PBS rinse and imaged using a water immersion lens.

THP-1 cells [6] = assay: Viability of THP-1 cells treated directly; assay type: cell-based, human; conditions: amiodarone treatment of THP-1 cells alone
[7] = THP-1 culture dosed with 50 μM PMA (positive control)
[8] = 50 uM acute, 4-O systems (with THP-1 cells)
[9] = 50 uM, 4-O systems, D4 after dose
[10] = 50 uM, without THP-1, vs untreated 3-O systems
[11] = amiodarone treatment of THP-1 cells alone
[12] = recirculating THP-1 cells from 4-O & 4-O+Amiodarone systems, days 1, 3, 5, 7

Question: Which results are given for `CCCCCCCCCCCCCC(=O)O[C@@H]1[C@@H](C)[C@@]2(O)[C@@H](C=C(CO)C[C@]3(O)C(=O)C(C)=C[C@@H]23)[C@@H]2C(C)(C)[C@]12OC(C)=O` [PMA, phorbol 12-myristate 13-acetate]?
Answer: increase in CCR5 expression (THP-1 cells [1]; [7]): 8%; increase in CD11b expression (THP-1 cells [1]; [7]): 23%; CD86 expression (printed C86) (THP-1 cells [1]; THP-1 culture dosed with PMA (positive control)): relatively unchanged

Question: With `CCCCc1oc2ccccc2c1C(=O)c1cc(I)c(OCCN(CC)CC)c(I)c1` [amiodarone, Amiodarone hydrochloride] as the compound, how does the “amiodarone mean concentration still present in the systems” value ([2]; 50 μM dose, 3-O systems+THP-1 cells) read?
Answer: 1.41 µM

Question: And the “reduction of amiodarone in medium” value ([2]; from 50 μM)?
Answer: 97%

Question: And the “decrease in cardiac force output” value [3, 8]?
Answer: 80%

Question: And the “decrease in cardiac force output” value ([3]; acute dose 50 uM, printed as 4-O systems treated vs untreated systems)?
Answer: 50%

Question: What about the “decrease in cardiac conduction velocity” value [4, 8] of the same compound?
Answer: 50%

Question: What about the “conduction velocity at D4” value [4, 9] of the same compound?
Answer: recovery

Question: What about the “reduction of cardiac conduction velocity” value [4, 10] of the same compound?
Answer: 20%

Question: What about the “decrease in cardiac beat frequency” value [5, 8] of the same compound?
Answer: 60%

Question: What about the “beat frequency at D4” value [5, 9] of the same compound?
Answer: recovery

Question: And the “reduction of cardiac beat frequency” value [5, 10]?
Answer: 45%

Question: What about the “effect on skeletal muscle force” value (skeletal muscle myotubes) of the same compound?
Answer: no significant effect

Question: And the cardiac chip viability (cardiac cells)?
Answer: does not significantly reduce viability

Question: What about the “skeletal muscle chip viability” value (skeletal muscle cells) of the same compound?
Answer: does not significantly reduce viability

Question: What about the CYP3A4 activity (CYP3A4) of the same compound?
Answer: significantly reduced

Question: What about the CYP2C9 activity (CYP2C9) of the same compound?
Answer: not affected

Question: What about the CYP1A activity (CYP1A) of the same compound?
Answer: not affected

Question: What about the IL-6 level (3-O systems+THP-1 cells) of the same compound?
Answer: increased

Question: And the IL-8 level (3-O systems+THP-1 cells)?
Answer: increased

Question: What about the MCP-1 level (3-O systems+THP-1 cells) of the same compound?
Answer: increased

Question: What about the CCR5 expression (THP-1 cells [1]; [11]) of the same compound?
Answer: did not significantly alter

Question: What about the CD11b expression (THP-1 cells [1]; [11]) of the same compound?
Answer: did not significantly alter

Question: And the CD86 expression (THP-1 cells [1]; [11])?
Answer: did not significantly alter

Question: And the CCR5 expression (THP-1 cells [1]; [12])?
Answer: largely stable

Question: What about the CD11b expression (THP-1 cells [1]; [12]) of the same compound?
Answer: increased

Question: What about the CD86 expression (THP-1 cells [1]; [12]) of the same compound?
Answer: largely stable

Question: What about the “THP-1 cell infiltration into cardiac tissue” value (cardiac tissue) of the same compound?
Answer: visibly infiltrated

Question: And the “CD11b and CD86 staining of liver cells (THP infiltration)” value (liver tissue)?
Answer: increase

Question: What about the THP-1 cell viability (THP-1 cells [6]) of the same compound?
Answer: did not significantly alter
